From patent US12194044B2, “Organic compounds” (priority 2016, dated 2025)

Experiments:
[1] = Pharmacokinetics in rats, PO and IV cross-over, plasma parent and metabolite AUC; type: in vivo; conditions: male, Sprague-Dawley, rat
Description: The pharmacokinetics of each compound is determined after both oral (PO) and intravenous (IV) administration in cross-over studies in rats.
PO Administration: Six male Sprague-Dawley rats are divided into two 3-rat groups for PO administration of compound on day 1 of the study. […] Blood samples are collected at 0.25, 0.5, 1, 2, 4, 6, 8, 12 and 24-hours post dose and analyzed for plasma concentration of the administered compound and its metabolites.
IV Administration: Six male Sprague-Dawley rats are divided into two 3-rat groups for IV administration of compound on day 1 of the study. […] Blood samples are collected at 2 minutes, 5 minutes, 0.25, 0.5, 2, 4, 6, 8 and 12 hours post dose and analyzed for plasma concentration of the administered compound and its metabolites.
(§1) All blood samples are processed to plasma and analyzed for parent and metabolite concentrations using liquid chromatography-tandem mass spectrometry (LC-MS/MS). The metabolites analyzed include the N-demethylated amide compound Q-1 (discussed supra). Area under the curve (AUC) of parent and metabolites based on plasma versus time data are calculated using Prism 5.04 software (GraphPad Software, Inc.).

[2] = Pharmacokinetics in dogs, SL and SC, plasma parent and metabolite AUC; type: in vivo, beagle dogs; conditions: dog
Description: The pharmacokinetics of each compound is determined after both sublingual (SL) and subcutaneous (SC) administration in non-cross over sequential studies in dogs.
SC Administration: Six male beagle dogs between 2 and 5 years of age are randomized in two groups of three dogs each. […] Dogs in group 2 are administered the compound of Example 2 at a dose of 1 mg/kg (free base equivalent) in a 0.5% methylcellulose/distilled water vehicle. Administration is subcutaneous in the intrascapular region via a 22 or 23 gauge needle. Whole blood samples are collected via the dog's cephalic vein pre-dose, and at post-dose time-points 5, 15 and 30 minutes, 1, 2, 4, 6, 8 and 24 hours. Following a minimum 7-day washout period, the dogs are transferred to the sublingual portion of the study.
Dogs in group 2 are administered the compound of Example 2 at a dose of 1 mg/kg (free base equivalent) in a 0.5% methylcellulose/distilled water vehicle. The animals are anesthetized prior to administration of the dose using propofol (6 mg/kg) and anesthesia is maintained for 30 minutes using 3-4.5% isoflurane. Administration is sublingual and the dosage is applied for 30 minutes, then wiped off using unwoven gauze. Whole blood samples are collected via the dog's cephalic vein pre-dose, and at post-dose time-points 5, 15 and 30 minutes, 1, 2, 4, 6, 8, 24, 36 and 48 hours.
as §1, with “The metabolites analyzed include the N-demethylated amide compound Q-1 (discussed supra).” left out

[3] = target: T1, Serotonin 5-HT2A (Homo sapiens, UniProt P28223); assay: Receptor binding studies, inhibition of human serotonin 5-HT2A receptor; conditions: read-out: inhibition of the human serotonin 5-HT2A receptor
[4] = Measurement of parent and amide metabolite levels in mice after single oral dose; type: in vivo; conditions: for extent of amide formation compared to compound Q after normalizing for internal standard: normalized to internal standard
Description: The compound of Comparative Example 4 is used as an internal standard in each study in order to control for differences in the inherent rate of metabolism in each study's animal group. […] The maximum concentration, time to maximum concentration, and Area Under the Curve (AUC) for both the parent and the major amide metabolite is determined. […] Relative Amide Formation is thus calculated as follows for each Example X (i.e., Ex. 1, Ex. 2, Ex. 3 and Ex. Q): [formula]

[5] = system: serotonin receptor (e.g., 5-HT2A), dopamine receptor (e.g., D2) and serotonin transporter; assay: Receptor binding studies, binding profile compared to Formula Q
[6] = target: Serotonin Transporter (Homo sapiens, UniProt P31645); assay: Receptor activity Ki, serotonin transporter; type: binding
[7] = target: Dopamine D2 (Homo sapiens, UniProt P14416); assay: Receptor activity Ki, dopamine D2; type: binding
[8] = target: T1, Serotonin 5-HT2A; assay: biochemical
[9] = target: Dopamine D1 (Homo sapiens, UniProt P21728); assay: Receptor activity Ki, dopamine D1; type: binding
Dopamine D1, sequence (P21728 whole entry): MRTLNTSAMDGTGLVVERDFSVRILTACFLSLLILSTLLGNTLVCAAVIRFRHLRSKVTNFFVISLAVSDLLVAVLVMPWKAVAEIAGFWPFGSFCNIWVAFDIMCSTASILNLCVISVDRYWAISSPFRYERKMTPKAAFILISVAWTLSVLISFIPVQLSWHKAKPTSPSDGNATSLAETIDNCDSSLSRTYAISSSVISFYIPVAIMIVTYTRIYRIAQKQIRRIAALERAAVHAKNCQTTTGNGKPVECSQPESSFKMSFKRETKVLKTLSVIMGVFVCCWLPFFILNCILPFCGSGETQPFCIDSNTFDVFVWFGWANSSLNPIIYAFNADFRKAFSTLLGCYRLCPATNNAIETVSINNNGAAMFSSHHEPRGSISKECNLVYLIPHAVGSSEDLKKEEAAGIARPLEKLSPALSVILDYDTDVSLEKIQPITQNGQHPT

Serotonin Transporter, sequence (P31645 whole entry): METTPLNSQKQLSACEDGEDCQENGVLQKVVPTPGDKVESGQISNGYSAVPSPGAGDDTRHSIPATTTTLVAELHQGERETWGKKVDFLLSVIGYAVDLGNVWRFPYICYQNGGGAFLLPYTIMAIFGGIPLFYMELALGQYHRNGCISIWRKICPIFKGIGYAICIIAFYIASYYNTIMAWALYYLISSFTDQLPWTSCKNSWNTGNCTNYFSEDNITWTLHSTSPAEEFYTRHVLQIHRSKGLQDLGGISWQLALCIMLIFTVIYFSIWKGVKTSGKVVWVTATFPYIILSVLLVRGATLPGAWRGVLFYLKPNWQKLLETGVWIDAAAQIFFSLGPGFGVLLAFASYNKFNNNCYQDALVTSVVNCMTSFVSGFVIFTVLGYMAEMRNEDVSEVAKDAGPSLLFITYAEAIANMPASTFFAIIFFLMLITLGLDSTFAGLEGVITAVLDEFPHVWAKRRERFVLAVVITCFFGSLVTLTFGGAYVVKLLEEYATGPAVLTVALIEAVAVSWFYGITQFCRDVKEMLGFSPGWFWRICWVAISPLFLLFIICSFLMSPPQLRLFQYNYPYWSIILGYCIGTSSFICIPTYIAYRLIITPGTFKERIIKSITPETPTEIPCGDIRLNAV
Dopamine D2, sequence (P14416 whole entry): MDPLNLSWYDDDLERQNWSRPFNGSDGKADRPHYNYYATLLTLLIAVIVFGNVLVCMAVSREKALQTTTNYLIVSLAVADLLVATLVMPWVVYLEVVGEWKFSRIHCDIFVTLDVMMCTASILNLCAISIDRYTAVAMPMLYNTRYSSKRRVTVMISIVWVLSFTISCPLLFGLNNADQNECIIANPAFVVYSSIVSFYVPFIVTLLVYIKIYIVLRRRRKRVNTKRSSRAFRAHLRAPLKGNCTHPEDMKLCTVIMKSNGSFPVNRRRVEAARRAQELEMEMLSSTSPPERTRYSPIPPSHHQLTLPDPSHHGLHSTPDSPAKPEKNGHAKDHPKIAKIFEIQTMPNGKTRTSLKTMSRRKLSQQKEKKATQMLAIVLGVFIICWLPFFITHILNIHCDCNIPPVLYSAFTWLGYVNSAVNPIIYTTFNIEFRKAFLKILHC
T1 sequence (P28223 whole entry): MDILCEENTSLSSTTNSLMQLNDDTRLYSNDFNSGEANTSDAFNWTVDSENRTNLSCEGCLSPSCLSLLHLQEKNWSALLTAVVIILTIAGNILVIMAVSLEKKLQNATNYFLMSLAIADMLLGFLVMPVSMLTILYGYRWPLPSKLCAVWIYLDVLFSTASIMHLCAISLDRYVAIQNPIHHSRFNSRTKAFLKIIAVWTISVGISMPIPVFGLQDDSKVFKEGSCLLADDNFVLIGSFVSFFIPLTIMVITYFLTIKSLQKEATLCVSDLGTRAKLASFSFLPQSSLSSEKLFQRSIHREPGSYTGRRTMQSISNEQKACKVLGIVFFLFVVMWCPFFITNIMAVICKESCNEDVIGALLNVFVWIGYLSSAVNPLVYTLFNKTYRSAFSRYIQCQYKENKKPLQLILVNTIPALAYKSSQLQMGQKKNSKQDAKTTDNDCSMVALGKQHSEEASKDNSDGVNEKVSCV

Row | SMILES | AUC ([1]; iv, 1 mg/kg) | AUC ([1]; po, 10 mg/kg) | extent of conversion of the parent compound to the amide metabolite compared to Formula Q [4] | extent of amide formation compared to compound Q after normalizing for internal standard [4] | receptor binding profile compared to Formula Q [5] | Ki [6] | Ki [7] | other results
1 | [2H]C1([2H])CN2c3c(cccc3N1C)[C@@H]1CN(CCCC(=O)c3ccc(F)cc3)CC[C@@H]12 (stereo in doubt) [Example 2, 2,2-D2-1-(4-fluorophenyl)-4-((6bR,10aS)-3-methyl-2,3,6b,7,10,10a-hexahydro-1H-pyrido[3′,4′:4,5]pyrrolo[1,2,3-de]quinoxalin-8(9H)-yl)butan-1-one] | 257 ng·h/mL | 58.5 ng·h/mL | considerably lower | significantly lower | substantially the same receptor binding profile |  |  | higher parent AUC compared to dosing of Formula Q ([2]; SL dosing): about 72%; higher parent AUC for SL compared to SC ([2]; SL vs SC): 61%; inhibition at 0.1 µM [3]: 98%
2 | [2H]C([2H])([2H])N1c2cccc3c2N(CC1([2H])[2H])[C@H]1CCN(CCCC(=O)c2ccc(F)cc2)C[C@@H]31 [Example 3, 2,2-D2-1-(4-fluorophenyl)-4-((6bR,10aS)-3-methyl-d3-2,3,6b,7,10,10a-hexahydro-1H-pyrido[3′,4′:4,5]pyrrolo[1,2,3-de]quinoxalin-8(9H)-yl)butan-1-one p-toluenesulfonate] |  |  | considerably lower | significantly lower | substantially the same receptor binding profile |  |  | 
3 | O=C1CN2c3c(cccc3[C@@H]3CN(CCCC(=O)c4ccc(F)cc4)CC[C@@H]32)N1 [Example Q-1] |  |  |  |  |  | > 600 nM | 50 to 250 nM | 
4 | CN1CCN2c3c(cccc31)[C@@H]1CN(CCCC(=O)c3ccc(F)cc3)CC[C@@H]12 [Formula Q, 4-((6bR,10aS)-3-methyl-2,3,6b,9,10,10a-hexahydro-1H-pyrido[3′,4′: 4,5]pyrrolo[1,2,3-de]quinoxalin-8(7H)-yl)-1-(4-fluorophenyl)-1-butanone, reference compound] | 231 ng·h/mL | 56 ng·h/mL |  |  |  |  |  | less net AUC of parent compound, SL compared to SC administration ([2]; SL vs SC): 10%
5 | O=C(CCCN1CC[C@H]2[C@@H](C1)c1cccc3c1N2CCN3)c1ccc(F)cc1 [Example Q-1A] |  |  |  |  |  | 31 to 78 nM | 30 nM | Ki [8]: 2 nM; Ki [9]: 110 nM
6 | [2H]C([2H])([2H])N1CCN2c3c(cccc31)[C@@H]1CN(CCCC(=O)c3ccc(F)cc3)CC[C@@H]12 [Example 1, 1-(4-Fluorophenyl)-4-((6bR,10aS)-3-methyl-d3-2,3,6b,7,10,10a-hexahydro-1H-pyrido[3′,4′:4,5]pyrrolo[1,2,3-de]quinoxalin-8(9H)-yl)butan-1-one p-toluenesulfonate] |  |  | considerably lower | significantly lower | substantially the same receptor binding profile |  |  | 
